# Measured values as given in the supplement of paper PMC10307832.
# Legend:
# Experiment in all cases: relative viability (nuclei count vs DMSO), 5 days (fraction); higher = more cells survive
# [1] = compound: C1=CC=C(C(=C1)C2=CC=C(C=C2)C3=CSC4=C3C(=C(C(=O)N4)C#N)O)O + N=C(N)NC(=N)NCCc1ccccc1 [Phenformin] (partner 250 µM)
# Outline: (§1)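 Five library-drug doses in √10 steps were combined with a fixed anchor-drug dose, or a single drug was given alone, by pin tool to lung cancer cell lines in 1536-well plates the day after seeding. Nuclei were stained and counted after 5 days. Relative viability is the nuclei count in treated wells over that in vehicle wells, taken as the median of duplicate plates.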
# [2] = compound: C1=CC=C(C(=C1)C2=CC=C(C=C2)C3=CSC4=C3C(=C(C(=O)N4)C#N)O)O + CC(C)C[C@H](NC(=O)[C@H](Cc1ccccc1)NC(=O)c1cnccn1)B(O)O [Bortezomib] (partner 0.002 µM)
# Outline: as §1
# Ricolinostat + Dasatinib = compound: O=C(CCCCCCNC(=O)c1cnc(N(c2ccccc2)c2ccccc2)nc1)NO [Ricolinostat] + Cc1nc(Nc2ncc(C(=O)Nc3c(C)cccc3Cl)s2)cc(N2CCN(CCO)CC2)n1 [Dasatinib] (partner 0.075 µM)
# Outline: as §1
# [3] = compound: C1=CC=C(C(=C1)C2=CC=C(C=C2)C3=CSC4=C3C(=C(C(=O)N4)C#N)O)O + C[C@]1(O)C[C@@H](c2nc(-c3ccc4ccc(-c5ccccc5)nc4c3)c3c(N)nccn32)C1 [Linsitinib] (partner 1 µM)
# Outline: as §1
Cell Line,relative viability ([1]; first compound 0.08 µM),relative viability ([1]; first compound 0.253 µM),relative viability ([1]; first compound 0.8 µM),relative viability ([1]; first compound 2.53 µM),relative viability ([1]; first compound 8 µM),relative viability ([2]; first compound 0.08 µM),relative viability ([2]; first compound 0.253 µM),relative viability ([2]; first compound 0.8 µM),relative viability ([2]; first compound 2.53 µM),relative viability ([2]; first compound 8 µM),relative viability (Ricolinostat + Dasatinib; first compound 0.08 µM),relative viability (Ricolinostat + Dasatinib; first compound 0.253 µM),relative viability (Ricolinostat + Dasatinib; first compound 0.8 µM),relative viability (Ricolinostat + Dasatinib; first compound 2.53 µM),relative viability ([3]; first compound 0.08 µM),relative viability ([3]; first compound 0.253 µM),relative viability ([3]; first compound 0.8 µM),relative viability ([3]; first compound 2.53 µM),relative viability ([3]; first compound 8 µM)
NCI-H1666,0.578,0.739,0.547,0.532,0.484,0.849,0.838,0.693,0.904,0.782,0.804,0.875,0.827,0.622,0.753,0.817,0.873,1,0.653
NCI-H1734,0.368,0.381,0.41,0.377,0.319,0.852,0.787,1.04,0.924,0.545,0.463,0.516,0.51,0.571,0.734,0.849,0.882,1.01,0.646
NCI-H1755,0.693,0.647,0.606,0.617,0.6,0.954,1.04,0.872,0.978,0.814,0.368,0.386,0.472,0.449,0.934,1.17,0.889,1.19,0.97
NCI-H1915,0.342,0.32,–,0.376,0.325,0.768,0.993,1.06,1.11,0.831,0.277,0.29,0.275,0.231,1.2,1.15,1.08,1.19,1.01
NCI-H1975,0.379,0.425,0.403,0.393,0.394,0.357,0.348,0.436,0.41,0.343,0.402,0.354,0.307,0.381,0.926,0.802,1.04,1.02,0.796
NCI-H1993,0.49,0.424,0.55,0.473,0.529,1.03,1.08,1.08,1.14,0.979,–,0.558,0.61,0.671,0.617,0.882,0.713,0.709,0.802
NCI-H2009,0.443,0.505,0.457,0.496,0.387,1.07,1.05,0.827,0.967,0.832,0.231,0.295,0.347,0.365,1.14,1.24,1.17,1.15,1.15
NCI-H2023,0.342,0.351,0.429,0.466,0.37,1.16,1.03,0.637,0.887,0.908,–,0.569,0.535,0.472,0.671,0.713,0.591,0.605,0.592
NCI-H2085,0.765,0.951,0.665,0.685,0.568,0.919,1.26,1.01,0.952,0.992,0.205,0.256,0.18,0.217,0.878,0.904,0.935,1.09,0.773
NCI-H2087,0.441,0.481,0.464,0.366,0.362,0.609,1,0.796,0.833,0.899,–,0.903,0.663,0.889,1.14,1.04,0.946,1.08,0.966
NCI-H2126,0.504,0.575,0.471,0.527,0.621,1.06,1.13,1.18,1.21,1.22,–,0.618,0.616,0.492,0.71,0.721,0.699,0.678,0.704
NCI-H2228,0.316,0.318,0.322,0.307,0.225,0.973,0.922,1.07,0.959,0.73,0.432,0.591,0.457,0.382,0.623,0.627,0.686,0.648,0.666
NCI-H2347,0.265,0.429,0.496,0.342,0.419,0.913,1.24,1.23,1.02,0.869,0.318,0.372,0.309,0.285,0.993,1.13,0.961,0.99,0.844
NCI-H2405,0.266,0.381,0.385,0.445,0.37,1.02,0.991,0.977,0.954,0.988,0.229,0.205,0.183,0.193,0.972,1.05,0.956,0.831,0.848
NCI-H3122,0.352,0.364,0.432,0.387,0.37,1.02,1.06,1.06,0.993,1.11,0.791,0.903,0.899,0.562,1.1,1.07,1.06,1.05,1.02
PC-3 [JPC-3],0.452,0.454,0.44,0.488,0.516,0.762,0.817,0.758,0.95,0.899,–,0.905,0.993,0.903,1.1,1.06,0.989,0.952,1.09
PC-14,0.489,0.676,0.561,0.555,0.355,0.801,0.81,0.812,1.07,0.88,0.243,0.248,0.267,0.233,0.93,1.12,0.978,1.09,0.745
RERF-LC-KJ,0.397,0.492,0.412,0.454,0.352,0.995,1.1,1.22,1.1,1.05,0.743,0.759,0.748,0.518,0.93,1.03,0.877,0.911,0.831
SK-LU-1,0.378,0.44,0.538,0.639,0.566,–,0.83,1.12,1.36,1.16,0.16,0.153,0.18,0.175,1.31,1.11,1.16,1.19,1.15
SW 1573,0.343,0.351,0.343,0.333,0.233,0.823,1.02,1.12,1.04,0.88,0.756,0.507,0.695,0.581,0.812,0.875,0.951,0.834,0.721
UMC-11,0.309,0.404,0.344,0.291,0.27,0.519,0.742,0.56,0.8,0.487,0.427,0.39,0.399,0.242,0.834,0.738,1.11,1.24,0.875
